Our source for the IC50 values is patent US9458172B2, “Pyridinyl and pyrimidinyl sulfoxide and sulfone derivatives” (priority 2012, dated 2016).

The structures appear in SMILES notation. Like-named read-outs stand apart in the source and are kept apart here.

One assay deals with A2780 cells. Briefly: In-Vitro Cell Proliferation Assay (SRB).
The next assay concerns the target NAMPT (Homo sapiens (Human), UniProt P43490). As to the kind of experiment: Biochemical Inhibition Assay (NAMPT enzymatic reaction, NMN quantified by mass spectrometry). The conditions noted are these: 33 nM recombinant His-tagged NAMPT, 1 μM NAM, 30 min at rt. The procedure:
Assay 1: Biochemical Inhibition Assay
NAMPT protein purification. Recombinant His-tagged NAMPT was produced in E. coli cells, purified over a Ni column, and further purified over a size-exclusion column by XTAL Biostructures.
The NAMPT Enzymatic Reaction. The NAMPT enzymatic reactions were carried out in Buffer A (50 mM Hepes pH 7.5, 50 mM NaCl, 5 mM MgCl2, and 1 mM THP) in 96-well V-bottom plates. The compound titrations were performed in a separate dilution plate by serially diluting the compounds in DMSO to make a 100× stock. […] The compound and enzyme mixture was incubated for 15 min at rt, then 10 μL of 10× substrate and co-factors in Buffer A were added to the test well to make a final concentration of 1 μM NAM, […] 5-Phospho-D-ribose 1-diphosphate (PRPP), and 2.5 mM Adenosine 5′-triphosphate (ATP). The reaction was allowed to proceed for 30 min at rt, then was quenched with the addition of 11 μL of a solution of formic acid and L-Cystathionine to make a final concentration of 1% formic acid and 10 μM L-Cystathionine. Background and signal strength was determined by addition (or non-addition) of a serial dilution of NMN to a pre-quenched enzyme and cofactor mix.
Quantification of NMN. A mass spectrometry-based assay was used to measure the NAMPT reaction product, β-nicotinamide mononucleotide (NMN), and the internal control (L-Cystathionine). NMN and L-Cystathionine were detected using the services of Biocius Lifesciences with the RapidFire system. In short, the NMN and L-Cystathionine were bound to a graphitic carbon cartridge in 0.1% formic acid, eluted in 30% acetonitrile buffer, and injected into a Sciex 4000 mass spectrometer. The components of the sample were ionized with electrospray ionization and the positive ions were detected. […] The fragments are quantified and the analyzed by the following method.
Determination of IC50 Values. First, the NMN signal was normalized to the L-Cystathionine signal by dividing the NMN signal by the L-Cystathionine signal for each well. The signal from the background wells were averaged and subtracted from the test plates.

Setting [1] is: Homo sapiens, A2780, 72 h, read-out: Cell Proliferation (IC50).
Setting [2] is: Homo sapiens, A2780, 72 h, read-out: Cell Proliferation (IC50), A2780 cells, 72 h, sulforhodamine B.

Sequence of NAMPT (P43490 whole entry): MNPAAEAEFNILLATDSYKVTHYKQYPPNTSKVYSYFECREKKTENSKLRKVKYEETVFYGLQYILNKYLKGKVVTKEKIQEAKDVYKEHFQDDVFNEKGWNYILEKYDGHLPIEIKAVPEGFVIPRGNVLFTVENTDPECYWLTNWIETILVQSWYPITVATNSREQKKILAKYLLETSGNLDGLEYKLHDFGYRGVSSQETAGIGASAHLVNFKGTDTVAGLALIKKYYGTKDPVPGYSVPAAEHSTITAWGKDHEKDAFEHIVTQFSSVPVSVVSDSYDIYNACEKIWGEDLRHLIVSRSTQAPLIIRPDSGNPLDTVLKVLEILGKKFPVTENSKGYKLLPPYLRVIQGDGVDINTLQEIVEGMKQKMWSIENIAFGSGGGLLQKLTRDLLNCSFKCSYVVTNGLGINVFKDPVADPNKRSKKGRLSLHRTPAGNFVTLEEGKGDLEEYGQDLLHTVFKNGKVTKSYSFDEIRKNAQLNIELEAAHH

On to `O=C(NCc1ncc(S(=O)(=O)c2cccc(C(F)(F)F)c2)cn1)c1ccc2nccn2c1` [Example 77, Imidazo[1,2-a]pyridine-6-carboxylic acid [5-(3-trifluoromethyl-benzenesulfonyl)-pyrimidin-2-ylmethyl]-amide], for which the IC50 in the assay on A2780 cells (setting [1]) came to 16.5 nM; at NAMPT it was 17.6 nM.
On to `O=C(NCc1ncc(S(=O)(=O)c2cccc(C(F)(F)F)c2)cn1)c1cc2ccncc2o1` [Example 81, Furo[2,3-c]pyridine-2-carboxylic acid [5-(3-trifluoromethyl-benzenesulfonyl)-pyrimidin-2-ylmethyl]-amide], for which the values for the IC50 in the assay with A2780 cells (setting [1]) and on NAMPT were 18.5 nM and 12.3 nM, respectively.
As to `O=C(NCc1ccc(S(=O)(=O)C2CCN(CC(F)(F)F)CC2)cn1)N1Cc2ccncc2C1` [Example 143, N-[[5-[[1-(2,2,2-trifluoroethyl)-4-piperidyl]sulfonyl]-2-pyridyl)methyl]-1,3-dihydropyrrolo[3,4-c]pyridine-2-carboxamide], the IC50 stood at 61.3 nM in the assay with A2780 cells (setting [1]) and 111 nM at NAMPT.
On to `O=C(NCc1ccc(S(=O)(=O)C2CCN(C3COC3)CC2)cn1)N1Cc2ccncc2C1` [Example 104, 1,3-Dihydro-pyrrolo[3,4-c]pyridine-2-carboxylic acid [5-(1-oxetan-3-yl-piperidine-4-sulfonyl)-pyridin-2-ylmethyl]-amide], for which the IC50 in the assay on A2780 cells (setting [1]) turned out to be 116 nM; on NAMPT, 67.9 nM.
As for `O=C(NCc1ccc(S(=O)(=O)C2CCN(CC(F)(F)F)CC2)cn1)c1cnc2nccn2c1` [Example 111, N-[[5-[[1-(2,2,2-trifluoroethyl)-4-piperidyl]sulfonyl]-2-pyridyl]methyl]imidazo[1,2-a]pyrimidine-6-carboxamide], the IC50 with A2780 cells (setting [2]) came to 101 nM; on NAMPT, 3 nM.
Consider `O=C(NCc1ccc(S(=O)(=O)C2CCN(CC(F)(F)F)CC2)cn1)c1cc2ccncc2o1` [Example 131, N-[[5-[[1-(2,2,2-trifluoroethyl)-4-piperidyl]sulfonyl]-2-pyridyl]methyl]furo[2,3-c]pyridine-2-carboxamide], for which the IC50 in the assay on A2780 cells (setting [2]) is 24.4 nM; at NAMPT, 5.24 nM.
Regarding `Cn1cc(S(=O)(=O)c2ccc(CNC(=O)N3Cc4ccncc4C3)nc2)cn1` [Example 99, 1,3-Dihydro-pyrrolo[3,4-c]pyridine-2-carboxylic acid [5-(1-methyl-1H-pyrazole-4-sulfonyl)-pyridin-2-ylmethyl]-amide], the results for the IC50 in the assay on A2780 cells (setting [1]) and at NAMPT were 1200 nM and 54.7 nM, respectively.
The like results for `O=C(NCc1ncc(S(=O)(=O)c2cc(F)cc(F)c2)cn1)c1cc2ccncc2o1` [Example 182, N-[[5-(3,5-difluorophenyl)sulfonyl-pyrimidin-2-yl]methyl]furo[2,3-c]pyridine-2-carboxamide] were, in that order, 40.5 nM and 25.1 nM.
The like results for `COc1cccc(S(=O)(=O)c2ccc(CNC(=O)c3cc4ccncc4o3)nc2)c1` [Example 32] were, in that order, 9.1 nM and 6.1 nM.
With `O=C(NCc1ccc(S(=O)(=O)c2ccc(N3CCOCC3)cc2)cn1)c1cnc2nccn2c1` [Example 38, Imidazo[1,2-a]pyrimidine-6-carboxylic acid [5-(4-morpholin-4-yl-benzenesulfonyl)-pyridin-2-ylmethyl]-amide], the IC50 in the assay with A2780 cells (setting [2]) stood at 10 nM; on NAMPT, 2.1 nM.
Regarding `Nc1ccc(S(=O)(=O)c2ccc(CNC(=O)N3Cc4ccncc4C3)nc2)cn1` [Example 150, N-[[5-[(6-amino-3-pyridyl)sulfonyl]-2-pyridyl]methyl]-1,3-dihydropyrrolo[3,4-c]pyridine-2-carboxamide], the IC50 with A2780 cells (setting [1]) is 678 nM; at NAMPT it was 99.2 nM.
For `O=C(NCc1ccc(S(=O)(=O)c2cncc(Cl)c2)cn1)c1cnc2[nH]ncc2c1` [Example 164, N-[[5-[(5-chloro-3-pyridyl)sulfonyl]-2-pyridyl]methyl]-1H-pyrazolo[3,4-b]pyridine-5-carboxamide], the IC50 in the assay on A2780 cells (setting [1]) came out at 49.4 nM; at NAMPT, 143 nM.
Consider `CCCn1cc(S(=O)(=O)c2ccc(CNC(=O)c3cc4ccncc4s3)nc2)cn1` [Example 76, Thieno[2,3-c]pyridine-2-carboxylic acid [5-(1-propyl-1H-pyrazole-4-sulfonyl)-pyridin-2-ylmethyl]-amide], for which the IC50 worked out at 9 nM in the assay on A2780 cells (setting [1]) and 3.1 nM at NAMPT.
Regarding `CN(C)c1ncc(S(=O)(=O)c2ccc(CNC(=O)c3cc4ccncc4o3)nc2)s1` [Example 93, Furo[2,3-c]pyridine-2-carboxylic acid [5-(2-dimethylamino-thiazole-5-sulfonyl)-pyridin-2-ylmethyl]-amide], the IC50 in the assay with A2780 cells (setting [1]) was determined as 1.16 nM; at NAMPT it was 4.9 nM.
As for `O=C(NCc1ccc([S+]([O-])c2cc(F)cc(F)c2)cn1)c1ccc2nccn2c1` (racemic) [Example 14, Imidazo[1,2-a]pyridine-6-carboxylic acid [5-(3,5-difluoro-benzenesulfinyl)-pyridin-2-ylmethyl)-amide (racemic)], the IC50 in the assay with A2780 cells (read-out: Cell Proliferation (IC50), A2780 cells, 72 h, sulforhodamine B) was 51.3 nM; on NAMPT, 36.5 nM.
Regarding `O=C(NCc1ccc(S(=O)(=O)C2CCN(CC(F)(F)F)CC2)cn1)c1cnc2[nH]ncc2c1` [Example 153, N-[[5-[[1-(2,2,2-trifluoroethyl)-4-piperidyl]sulfonyl]-2-pyridyl]methyl]-1H-pyrazolo[3,4-b]pyridine-5-carboxamide], the values for the IC50 with A2780 cells (setting [1]) and at NAMPT were 1340 nM and 1740 nM, respectively.
`O=C(NCc1ccc(S(=O)(=O)C2CCCCC2)cn1)N1Cc2ccncc2C1` [Example 59, 1,3-Dihydro-pyrrolo[3,4-c]pyridine-2-carboxylic acid (5-cyclohexanesulfonyl-pyridin-2-ylmethyl)-amide]: the IC50 amounted to 237 nM with A2780 cells (setting [2]) and 27.5 nM on NAMPT.
In the case of `COCC(=O)N1CCC(S(=O)(=O)c2ccc(CNC(=O)c3cc4ccncc4o3)nc2)CC1` [Example 122, N-[[5-[[1-(2-methoxyacetyl)-4-piperidyl]sulfonyl]-2-pyridyl]methyl]furo[2,3-c]pyridine-2-carboxamide], the IC50 in the assay on A2780 cells (setting [1]) worked out at 46.3 nM; on NAMPT, 103 nM.
`O=C(NCc1ccc([S+]([O-])c2cccc(OC(F)(F)F)c2)cn1)N1Cc2ccncc2C1` (racemic) [Example 89, 1,3-Dihydro-pyrrolo[3,4-c]pyridine-2-carboxylic acid [5-(3-trifluoromethoxy-benzenesulfinyl)-pyridin-2-ylmethyl]-amide (racemic)]: the IC50 in the assay with A2780 cells (setting [1]) was found to be 18.6 nM; on NAMPT it was 8 nM.
The like results for `O=C(NCc1ccc(S(=O)(=O)C2CCN(C3CCOCC3)CC2)cn1)c1ccc2nccn2c1` [Example 161, N-[[5-[(1-tetrahydropyran-4-yl-4-piperidyl)sulfonyl]-2-pyridyl]methyl]imidazo[1,2-a]pyridine-6-carboxamide] were, in that order, 52.8 nM and 253 nM.
Consider `O=C(NCc1ccc(S(=O)(=O)c2cccc(N3CCOCC3)c2)cn1)c1cnc2[nH]ncc2c1` [Example 157, N-[[5-(3-morpholinophenyl)sulfonyl-2-pyridyl]methyl]-1H-pyrazolo[3,4-b]pyridine-5-carboxamide], for which the values for the IC50 in the assay with A2780 cells (setting [1]) and on NAMPT were 217 nM and 290 nM, respectively.
Regarding `O=C(NCc1ccc(S(=O)(=O)c2cncc(C(F)(F)F)c2)cn1)c1cc2ccncc2o1` [Example 163, N-[[5-[[5-(trifluoromethyl)-3-pyridyl]sulfonyl]-2-pyridyl]methyl]furo[2,3-c]pyridine-2-carboxamide], the figures for the IC50 in the assay with A2780 cells (setting [1]) and on NAMPT were 25.3 nM and 49.5 nM, respectively.
As for `O=C(NCc1ccc(S(=O)(=O)C2CCOCC2)cn1)c1ccc2nccn2c1` [Example 60, Imidazo[1,2-a]pyridine-6-carboxylic acid [5-(tetrahydro-pyran-4-sulfonyl)-pyridin-2-ylmethyl]-amide], the figures for the IC50 in the assay on A2780 cells (setting [1]) and at NAMPT were 1300 nM and 693 nM, respectively.
Turning to `CCCn1cc(S(=O)(=O)c2ccc(CNC(=O)c3ccc4nccn4c3)nc2)cn1` [Example 43, Imidazo[1,2-a]pyridine-6-carboxylic acid [5-(1-propyl-1H-pyrazole-4-sulfonyl)-pyridin-2-ylmethyl]-amide], the IC50 with A2780 cells (setting [1]) came to 24.1 nM; at NAMPT, 27.3 nM.
In the case of `O=C(NCc1ccc([S+]([O-])c2cccc(OC(F)(F)F)c2)cn1)c1cc2ccncc2o1` (racemic) [Example 90, Furo[2,3-c]pyridine-2-carboxylic acid [5-(3-trifluoromethoxy-benzenesulfinyl)-pyridin-2-ylmethyl]-amide (racemic)], the IC50 in the assay with A2780 cells (setting [1]) is 25.5 nM; on NAMPT, 16.2 nM.
